IC50 data for 28 compounds are collected here from patent US10428063B2 (Bayer Pharma Aktiengesellschaft, priority 2015, dated 2019).

Chain of catalytic domain of human Bub1 (amino acids 704-1085) (O43683 704-1085): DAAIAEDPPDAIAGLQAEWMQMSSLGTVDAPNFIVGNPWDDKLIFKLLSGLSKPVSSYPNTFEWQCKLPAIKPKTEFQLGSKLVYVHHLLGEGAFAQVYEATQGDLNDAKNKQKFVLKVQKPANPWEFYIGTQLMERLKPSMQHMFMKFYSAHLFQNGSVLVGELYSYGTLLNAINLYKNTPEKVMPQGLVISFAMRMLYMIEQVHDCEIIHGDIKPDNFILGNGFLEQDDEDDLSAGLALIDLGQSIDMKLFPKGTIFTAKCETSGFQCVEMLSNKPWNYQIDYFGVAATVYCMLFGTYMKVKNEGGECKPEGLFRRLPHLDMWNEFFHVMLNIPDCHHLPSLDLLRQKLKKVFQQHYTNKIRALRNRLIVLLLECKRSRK

The assay addresses catalytic domain of human Bub1 (amino acids 704-1085) (Homo sapiens (Human), UniProt O43683). Description: Bub1 kinase assay (TR-FRET). The format is biochemical. The following applies: 10 μM ATP, 1 μM peptide substrate, recombinant catalytic domain of human Bub1, read-out: Bub1 kinase assay median IC50. From the text:
Bub1-inhibitory activities of compounds described in the present invention were quantified using a time-resolved fluorescence energy transfer (TR-FRET) kinase assay which measures phosphorylation of the synthetic peptide Biotin-Ahx-VLLPKKSFAEPG (C-terminus in amide form), purchased from e.g. Biosyntan (Berlin, Germany) by the (recombinant) catalytic domain of human Bub1 (amino acids 704-1085), expressed in Hi5 insect cells with an N-terminal His6-tag and purified by affinity- (Ni-NTA) and size exclusion chromatography.
In a typical assay 11 different concentrations of each compound (0.1 nM, 0.33 nM, 1.1 nM, 3.8 nM, 13 nM, 44 nM, 0.15 μM, 0.51 μM, 1.7 μM, 5.9 μM and 20 μM) were tested in duplicate within the same microtiter plate. To this end, 100-fold concentrated compound solutions (in DMSO) were previously prepared by serial dilution (1:3.4) of 2 mM stocks in a clear low volume 384-well source microtiter plate (Greiner Bio-One, Frickenhausen, Germany), from which 50 nl of compounds were transferred into a black low volume test microtiter plate from the same supplier. Subsequently, 2 μl of Bub1 (the final concentration of Bub1 was adjusted depending on the activity of the enzyme lot in order to be within the linear dynamic range of the assay: typically ˜200 ng/ml were used) in aqueous assay buffer [50 mM Tris/HCl pH 7.5, 10 mM magnesium chloride (MgCl2), 200 mM potassium chloride (KCl), 1.0 mM dithiothreitol (DTT), 0.1 mM sodium ortho-vanadate, 1% (v/v) glycerol, 0.01% (w/v) bovine serum albumine (BSA), 0.005% (v/v) Trition X-100 (Sigma), 1× Complete EDTA-free protease inhibitor mixture (Roche)] were added to the compounds in the test plate and the mixture was incubated for 15 min at 22° C. to allow pre-equilibration of the putative enzyme-inhibitor complexes before the start of the kinase reaction, which was initiated by the addition of 3 μl 1.67-fold concentrated solution (in assay buffer) of adenosine-tri-phosphate (ATP, 10 μM final concentration) and peptide substrate (1 μM final concentration). The resulting mixture (5 μl final volume) was incubated at 22° C. during 60 min., and the reaction was stopped by the addition of 5 μl of an aqueous EDTA-solution (50 mM EDTA, in 100 mM HEPES pH 7.5 and 0.2% (w/v) bovine serum albumin) which also contained the TR-FRET detection reagents (0.2 μM streptavidin-XL665 [Cisbio Bioassays, Codolet, France] and 1 nM anti-phosho-Serine antibody [Merck Millipore, cat. #35-002] and 0.4 nM LANCE EU-W1024 labeled anti-mouse IgG antibody [Perkin-Elmer, product no. AD0077, alternatively a Terbium-cryptate-labeled anti-mouse IgG antibody from Cisbio Bioassays can be used]). The stopped reaction mixture was further incubated 1 h at 22° C. in order to allow the formation of complexes between peptides and detection reagents. Subsequently, the amount of product was evaluated by measurement of the resonance energy transfer from the Eu-chelate-antibody complex recognizing the Phosphoserine residue to the streptavidin-XL665 bound to the biotin moiety of the peptide. To this end, the fluorescence emissions at 620 nm and 665 nm after excitation at 330-350 nm were measured in a TR-FRET plate reader, e.g. a Rubystar or Pherastar (both from BMG Labtechnologies, Offenburg, Germany) or a Viewlux (Perkin-Elmer) and the ratio of the emissions (665 nm/622 nm) was taken as indicator for the amount of phosphorylated substrate. The data were normalised using two sets of control wells for high- (=enzyme reaction without inhibitor=0%=Minimum inhibition) and low- (=all assay components without enzyme=100%=Maximum inhibition) Bub1 activity. IC50 values were calculated by fitting the normalized inhibition data to a 4-parameter logistic equation (Minimum, Maximum, IC50, Hill; Y=Max+(Min−Max)/(1+(X/IC50)Hill)).
(In general: Time-resolved FRET reads energy transfer from a long-lived donor to a nearby acceptor.)
What is called IC50 is the concentration that gives 50% inhibition. As to `CN1CCc2[nH]c(-c3ccnc(NC(=O)[C@H]4C[C@H]4F)c3)c(Nc3ccccc3)c2C1=O` (relative stereo) [Example 25, rel-(1R,2R)-2-fluoro-N-{4-[5-methyl-4-oxo-3-(phenylamino)-4,5,6,7-tetrahydro-1H-pyrrolo[3,2-c]pyridin-2-yl]pyridin-2-yl}cyclopropanecarboxamide], the IC50 is 17.1 nM.
With `CC1(C)Cc2[nH]c(-c3ccncc3)c(Nc3ccccc3)c2C(=O)N1` [Example 1, 6,6-dimethyl-3-(phenylamino)-2-(pyridin-4-yl)-1,5,6,7-tetrahydro-4H-pyrrolo[3,2-c]pyridin-4-one] the figure was 11.6 nM.
With `O=C1NCCc2[nH]c(-c3ccncc3)c(Nc3ccccc3)c21` [Example 2, 3-(phenylamino)-2-(pyridin-4-yl)-1,5,6,7-tetrahydro-4H-pyrrolo[3,2-c]pyridin-4-one] the figure was 7.89 nM; with `Cc1cnccc1-c1[nH]c2c(c1Nc1ccccc1)C(=O)NCC2` [Example 3, 2-(3-methylpyridin-4-yl)-3-(phenylamino)-1,5,6,7-tetrahydro-4H-pyrrolo[3,2-c]pyridin-4-one], 244 nM; with `CCn1c2c(c(Nc3ccccc3)c1-c1ccncc1)C(=O)NC(C)(C)C2` [Example 4, 1-ethyl-6,6-dimethyl-3-(phenylamino)-2-(pyridin-4-yl)-1,5,6,7-tetrahydro-4H-pyrrolo[3,2-c]pyridin-4-one], 14.6 nM.
With `CCn1c2c(c(Nc3ccccc3)c1-c1ccncc1)C(=O)NCC2` [Example 5, 1-ethyl-3-(phenylamino)-2-(pyridin-4-yl)-1,5,6,7-tetrahydro-4H-pyrrolo[3,2-c]pyridin-4-one] the figure was 35.1 nM.
As to `CC(C)(C)OC(=O)N1CCc2[nH]c(-c3ccncc3)c(Nc3ccccc3)c2C1=O` [Example 6, tert-butyl 4-oxo-3-(phenylamino)-2-(pyridin-4-yl)-1,4,6,7-tetrahydro-5H-pyrrolo[3,2-c]pyridine-5-carboxylate], the IC50 worked out at 10.9 nM.
Take `O=C1NCCc2[nH]c(-c3ccncc3)c(Nc3ccc(F)cc3)c21` [Example 7, 3-[(4-fluorophenyl)amino]-2-(pyridin-4-yl)-1,5,6,7-tetrahydro-4H-pyrrolo[3,2-c]pyridin-4-one]: the IC50 was determined as 19.8 nM.
The value for `Nc1cc(-c2[nH]c3c(c2Nc2ccccc2)C(=O)NCC3)ccn1` [Example 8, 2-(2-aminopyridin-4-yl)-3-(phenylamino)-1,5,6,7-tetrahydro-4H-pyrrolo[3,2-c]pyridin-4-one] was 138 nM; that for `COCCn1c2c(c(Nc3ccccc3)c1-c1ccncc1)C(=O)NCC2` [Example 9, 1-(2-methoxyethyl)-3-(phenylamino)-2-(pyridin-4-yl)-1,5,6,7-tetrahydro-4H-pyrrolo[3,2-c]pyridin-4-one] was 354 nM; that for `CC(C)C(=O)Nc1cc(-c2[nH]c3c(c2Nc2ccccc2)C(=O)N(C(=O)C(C)C)CC3)ccn1` [Example 10, 2-methyl-N-{4-[5-(2-methylpropanoyl)-4-oxo-3-(phenylamino)-4,5,6,7-tetrahydro-1H-pyrrolo[3,2-c]pyridin-2-yl]pyridin-2-yl}propanamide] was 319 nM.
As for `CCn1c2c(c(Nc3ccc(F)cc3)c1-c1ccncc1)C(=O)NCC2` [Example 11, 1-ethyl-3-[(4-fluorophenyl)amino]-2-(pyridin-4-yl)-1,5,6,7-tetrahydro-4H-pyrrolo[3,2-c]pyridin-4-one], the IC50 was 64.5 nM.
The value for `Cc1cc(-c2[nH]c3c(c2Nc2ccccc2)C(=O)NCC3)ccn1` [Example 12, 2-(2-methylpyridin-4-yl)-3-(phenylamino)-1,5,6,7-tetrahydro-4H-pyrrolo[3,2-c]pyridin-4-one] was 15.4 nM; that for `CCn1c2c(c(Nc3ccccc3)c1-c1ccnc(C)c1)C(=O)NCC2` [Example 13, 1-ethyl-2-(2-methylpyridin-4-yl)-3-(phenylamino)-1,5,6,7-tetrahydro-4H-pyrrolo[3,2-c]pyridin-4-one] was 972 nM.
With `CC(=O)Nc1cc(-c2[nH]c3c(c2Nc2ccccc2)C(=O)NCC3)ccn1` [Example 14] the figure was 18.3 nM; with `CCn1c2c(c(Nc3ccccc3)c1-c1ccnc(NC(C)=O)c1)C(=O)NCC2` [Example 15, N-{4-[1-ethyl-4-oxo-3-(phenylamino)-4,5,6,7-tetrahydro-1H-pyrrolo[3,2-c]pyridin-2-yl]pyridin-2-yl}acetamide], 79 nM.
The value for `O=c1[nH]ccc2[nH]c(-c3ccncc3F)c(Nc3ccccc3)c12` [Example 16, 2-(3-fluoropyridin-4-yl)-3-(phenylamino)-1,5-dihydro-4H-pyrrolo[3,2-c]pyridin-4-one] was 19.1 nM; that for `CN1CCc2[nH]c(-c3ccncc3F)c(Nc3ccccc3)c2C1=O` [Example 17, 2-(3-fluoropyridin-4-yl)-5-methyl-3-(phenylamino)-1,5,6,7-tetrahydro-4H-pyrrolo[3,2-c]pyridin-4-one] was 8.7 nM; that for `O=C1NCCc2[nH]c(-c3ccncc3F)c(Nc3ccccc3)c21` [Example 18, 2-(3-fluoropyridin-4-yl)-3-(phenylamino)-1,5,6,7-tetrahydro-4H-pyrrolo[3,2-c]pyridin-4-one] was 11.5 nM.
For the compound `CCNC(=O)Nc1cc(-c2[nH]c3c(c2Nc2ccccc2)C(=O)NCC3)ccn1` [Example 19, 1-ethyl-3-{4-[4-oxo-3-(phenylamino)-4,5,6,7-tetrahydro-1H-pyrrolo[3,2-c]pyridin-2-yl]pyridin-2-yl}urea], the 50% inhibitory concentration (IC50) worked out at 19.5 nM.
For the compound `CN1CCc2[nH]c(-c3ccncc3)c(Nc3ccccc3)c2C1=O` [Example 20, 5-methyl-3-(phenylamino)-2-(pyridin-4-yl)-1,5,6,7-tetrahydro-4H-pyrrolo[3,2-c]pyridin-4-one], the half-maximal inhibitory concentration (IC50) came out at 13.4 nM.
Turning to `CN1CCc2[nH]c(-c3ccnc(N)c3)c(Nc3ccccc3)c2C1=O` [Example 21, 2-(2-aminopyridin-4-yl)-5-methyl-3-(phenylamino)-1,5,6,7-tetrahydro-4H-pyrrolo[3,2-c]pyridin-4-one], the IC50 turned out to be 170 nM.
As to `COc1cnccc1-c1[nH]c2c(c1Nc1ccccc1)C(=O)N(C)CC2` [Example 22, 2-(3-methoxypyridin-4-yl)-5-methyl-3-(phenylamino)-1,5,6,7-tetrahydro-4H-pyrrolo[3,2-c]pyridin-4-one], the IC50 was 26.9 nM.
With `CC(=O)Nc1cc(-c2[nH]c3c(c2Nc2ccccc2)C(=O)N(C)CC3)ccn1` [Example 23] the figure was 23.2 nM; with `CN1CCc2[nH]c(-c3ccnc(NC(=O)C4CC4)c3)c(Nc3ccccc3)c2C1=O` [Example 24], 15.3 nM.
Consider `CN1CCc2[nH]c(-c3ccncc3OCCO)c(Nc3ccccc3)c2C1=O` [Example 26, 2-[3-(2-hydroxyethoxy)pyridin-4-yl]-5-methyl-3-(phenylamino)-1,5,6,7-tetrahydro-4H-pyrrolo[3,2-c]pyridin-4-one], for which the IC50 was determined as 47.6 nM.
On to `CN1CCc2[nH]c(-c3ccncc3OCC3CC3)c(Nc3ccccc3)c2C1=O` [Example 27, 2-[3-(cyclopropylmethoxy)pyridin-4-yl]-5-methyl-3-(phenylamino)-1,5,6,7-tetrahydro-4H-pyrrolo[3,2-c]pyridin-4-one], for which the IC50 came to 21.7 nM.
With `CCCOc1cnccc1-c1[nH]c2c(c1Nc1ccccc1)C(=O)N(C)CC2` [Example 28, 5-methyl-3-(phenylamino)-2-(3-propoxypyridin-4-yl)-1,5,6,7-tetrahydro-4H-pyrrolo[3,2-c]pyridin-4-one] the figure was 51.6 nM.
